This passage reports inhibition results from US20230011571A1, “SMALL MOLECULE FURIN INHIBITORS FOR TREATING INFECTIOUS DISEASES” (BP Asset V, Inc., priority 2019, published 2023).

Holding throughout (assay type): cell-based
Test [1] has as its system Chikungunya virus (CHIKV). Description: microbe, parasite or virus in culture. To be noted: Chikungunya virus, Vero, 48 h, read-out: Percent viral inhibition CHKV.
A further test concerns dengue virus (DENV). Description: microbe, parasite or virus in culture. Particulars: Dengue virus, Vero, 120 h, read-out: Percent viral inhibition DENY.
The test system of a further test is Marburg virus (MARV). Kind of test: organism not typed. To be noted: Vero, 72 h, read-out: Percent viral inhibition MARV.

As a reminder, the inhibition is the change of the read-out against control, counted positive when it falls. In the case of `CS(=O)(=O)CCCN1CCN(c2ncc(Oc3cc(CN4CCC(CCC(=O)O)CC4)cc(-c4cc(Cl)cc(Cl)c4)n3)cn2)CC1` [Example 272, 3-(1-((2-(3,5-dichlorophenyl)-6-((2-(4-(3-(methylsulfonyl)propyl)piperazin-1-yl)pyrimidin-5-yl)oxy)pyridin-4-yl)methyl)piperidin-4-yl)propanoic acid], the inhibition at 1 µM turned out to be 30.3% in test [1], 42.4% with dengue virus (DENV) and 45.5% in the test on Marburg virus (MARV).
On to `CC(CC1CCN(Cc2cc(Oc3cnc(N4CCN(C)CC4)nc3)nc(-c3cc(Cl)cc(Cl)c3)c2)CC1)C(=O)O` (stereo not drawn) [Example 131, 3-(1-((2-(3,5-dichlorophenyl)-6-((2-(4-methylpiperazin-1-yl)pyrimidin-5-yl)oxy)pyridin-4-yl)methyl)piperidin-4-yl)-2-methylpropanoic acid], for which the inhibition at 1 µM in test [1] worked out at 3.11%; with dengue virus (DENV) it was 20.7%; with Marburg virus (MARV), 52.4%.
`CNC(=O)NCC1CCN(Cc2cc(Oc3cnc(N4CCN(CC(C)C(=O)O)CC4)nc3)cc(-c3cc(Cl)cc(Cl)c3)c2)CC1` (stereo not drawn) [Example 292, 3-(4-(5-((3′,5′-dichloro-5-((4-((3-methylureido)methyl)piperidin-1-yl)methyl)-[1,1′-biphenyl]-3-yl)oxy)pyrimidin-2-yl)piperazin-1-yl)-2-methylpropanoic acid]: the inhibition at 1 µM worked out at 15.9% in test [1], 26% in the test with dengue virus (DENV) and 54.2% in the test on Marburg virus (MARV).
Turning to `CNC(=O)NCC1CCN(Cc2cc(Oc3cnc(N4CCN(CCCO)CC4)nc3)nc(-c3cc(Cl)cc(Cl)c3)c2)CC1` [Example 171, 1-((1-((2-(3,5-dichlorophenyl)-6-((2-(4-(3-hydroxypropyl)piperazin-1-yl)pyrimidin-5-yl)oxy)pyridin-4-yl)methyl)piperidin-4-yl)methyl)-3-methylurea], the inhibition at 1 µM in test [1] was found to be 0%; in the test on dengue virus (DENV) it was 41.7%; with Marburg virus (MARV), 0%.
On to `CN1C[C@@H]2C[C@H]1CN2c1ccc(Oc2cc(CN3CCC(CC(=O)O)CC3)cc(-c3cc(Cl)cc(Cl)c3)n2)cn1` [Example 203, 2-(1-((2-(3,5-dichlorophenyl)-6-((6-((1S,4S)-5-methyl-2,5-diazabicyclo[2.2.1]heptan-2-yl)pyridin-3-yl)oxy)pyridin-4-yl)methyl)piperidin-4-yl)acetic acid], for which the inhibition at 1 µM in test [1] was determined as 23.6%; with dengue virus (DENV), 7.17%; with Marburg virus (MARV), 55.2%.
Taken in the same sequence, the figures for `CC(=O)NCC1CCN(Cc2cc(Oc3ccc(NCC(C)(C)N)nc3)cc(-c3cc(Cl)cc(Cl)c3)c2)CC1` [Example 105, N-((1-((5-((6-((2-amino-2-methylpropyl)amino)pyridin-3-yl)oxy)-3′,5′-dichloro-[1,1′-biphenyl]-3-yl)methyl)piperidin-4-yl)methyl)acetamide] were 0%, 19.9% and 0%.
The matching figures for `CN1CCCN(c2ccc(Oc3cc(CN4CC[C@@H]5[C@H](CC4)[C@H]5C(=O)O)cc(-c4cc(Cl)cc(Cl)c4)n3)nn2)CC1` [Example 362, (1R,7S,8r)-4-((2-(3,5-dichlorophenyl)-6-((6-(4-methyl-1,4-diazepan-1-yl)pyridazin-3-yl)oxy)pyridin-4-yl)methyl)-4-azabicyclo[5.1.0]octane-8-carboxylic acid]: 14.9%, 50.2% and 50.9%.
On to `C[C@H]1CN(c2ncc(Oc3cc(CN4CCC(CC(=O)O)CC4)cc(-c4cc(Cl)cc(Cl)c4)n3)cn2)CCN1` [Example 159, (S)-2-(1-((2-(3,5-dichlorophenyl)-6-((2-(3-methylpiperazin-1-yl)pyrimidin-5-yl)oxy)pyridin-4-yl)methyl)piperidin-4-yl)acetic acid], for which the inhibition at 1 µM in test [1] came to 22.9%; with dengue virus (DENV), 17.5%; with Marburg virus (MARV), 49.8%.
`CCN1C[C@@H]2C[C@H]1CN2c1ncc(Oc2cc(CN3CCC(CC(=O)O)CC3)cc(-c3cc(Cl)cc(Cl)c3)n2)cn1` [Example 232, 2-(1-((2-(3,5-dichlorophenyl)-6-((2-((1S,4S)-5-ethyl-2,5-diazabicyclo[2.2.1]heptan-2-yl)pyrimidin-5-yl)oxy)pyridin-4-yl)methyl)piperidin-4-yl)acetic acid]: the inhibition at 1 µM in test [1] stood at 37.1%; in the test on dengue virus (DENV), 19.5%; in the test with Marburg virus (MARV), 43.4%.
Regarding `CC(=O)NCC1CCN(Cc2cc(Oc3ccc(N4C[C@@H]5C[C@H]4CN5CCS(C)(=O)=O)nc3)nc(-c3cc(Cl)cc(Cl)c3)c2)CC1` [Example 183, N-((1-((2-(3,5-dichlorophenyl)-6-((6-((1S,4S)-5-(2-(methylsulfonyl)ethyl)-2,5-diazabicyclo[2.2.1]heptan-2-yl)pyridin-3-yl)oxy)pyridin-4-yl)methyl)piperidin-4-yl)methyl)acetamide], the inhibition at 1 µM in test [1] is 16.4%; with dengue virus (DENV), 21%; in the test with Marburg virus (MARV) it was 74.8%.
As for `COC(=O)NCC1CCN(Cc2cc(Oc3cnc(N4CCN(C)CC4)cn3)nc(-c3cc(Cl)cc(Cl)c3)c2)CC1` [Example 395, methyl((1-((2-(3,5-dichlorophenyl)-6-((5-(4-methylpiperazin-1-yl)pyrazin-2-yl)oxy)pyridin-4-yl)methyl)piperidin-4-yl)methyl)carbamate], the inhibition at 1 µM in test [1] was 0%; with dengue virus (DENV) it was 88.2%; with Marburg virus (MARV), 37.2%.
Regarding `CC(=O)NCC1CCN(Cc2cc(Oc3cnc(N4CCN(CCC(=O)O)CC4)nc3)cc(-c3cc(Cl)cc(Cl)c3)c2)CC1` [Example 168], the inhibition at 1 µM was 29.6% in test [1], 38.9% in the test with dengue virus (DENV) and 60.3% in the test on Marburg virus (MARV).
As for `CC(C)(O)CCN1CCN(c2ncc(Oc3cc(CN4CCC(CC(=O)O)CC4)cc(-c4cc(Cl)cc(Cl)c4)n3)cn2)CC1` [Example 279, 2-(1-((2-(3,5-dichlorophenyl)-6-((2-(4-(3-hydroxy-3-methylbutyl)piperazin-1-yl)pyrimidin-5-yl)oxy)pyridin-4-yl)methyl)piperidin-4-yl)acetic acid], the inhibition at 1 µM amounted to 37.8% in test [1], 27.5% with dengue virus (DENV) and 18.8% with Marburg virus (MARV).
`COC(=O)NCC1CCN(Cc2cc(Oc3cnc(N4CC5CCC(C4)N5CCC(=O)O)nc3)nc(-c3cc(Cl)cc(Cl)c3)c2)CC1` [Example 56, 3-(3-(5-((6-(3,5-dichlorophenyl)-4-((4-(((methoxycarbonyl)amino)methyl)piperidin-1-yl)methyl)pyridin-2-yl)oxy)pyrimidin-2-yl)-3,8-diazabicyclo[3.2.1]octan-8-yl) propanoic acid]: the inhibition at 1 µM in test [1] came to 31.3%; with dengue virus (DENV), 57.1%; in the test with Marburg virus (MARV) it was 60.9%.
As for `CC(=O)NCC1CCN(Cc2cc(Oc3ccc(N4CCN(CCC(=O)O)CC4)nc3)nc(-c3cc(F)cc(Cl)c3)c2)CC1` [Example 115, 3-(4-(5-((4-((4-(acetamidomethyl)piperidin-1-yl)methyl)-6-(3-chloro-5-fluorophenyl)pyridin-2-yl)oxy)pyridin-2-yl)piperazin-1-yl)propanoic acid], the inhibition at 1 µM in test [1] is 4.53%; in the test with dengue virus (DENV), 2.3%; in the test with Marburg virus (MARV), 59.2%.
As for `O=C(O)CC1CCN(Cc2cc(Oc3cnc(N4CC5CC(C4)N5)nc3)nc(-c3cc(Cl)cc(Cl)c3)c2)CC1` [Example 162, 2-(1-((2-((2-(3,6-diazabicyclo[3.1.1]heptan-3-yl)pyrimidin-5-yl)oxy)-6-(3,5-dichlorophenyl)pyridin-4-yl)methyl)piperidin-4-yl) acetic acid], the inhibition at 1 µM came out at 30.8% in test [1], 41.4% with dengue virus (DENV) and 72.8% in the test with Marburg virus (MARV).
Take `CNCc1cc(Oc2cnc(N3CCN(CCCS(C)(=O)=O)CC3)nc2)nc(-c2cc(Cl)cc(Cl)c2)c1` [Example 37, 1-(2-(3,5-dichlorophenyl)-6-((2-(4-(3-(methylsulfonyl)propyl)piperazin-1-yl)pyrimidin-5-yl)oxy)pyridin-4-yl)-N-methylmethanamine]: the inhibition at 1 µM in test [1] was 32.9%; with dengue virus (DENV), 100%; with Marburg virus (MARV), 56.6%.
On to `CC(CO)N1CCN(c2ncc(Oc3cc(CN4CCC(CC(=O)O)CC4)cc(-c4cc(Cl)cc(Cl)c4)n3)cn2)CC1` (stereo not drawn) [Example 21, 2-(1-((2-(3,5-dichlorophenyl)-6-((2-(4-(1-hydroxypropan-2-yl)piperazin-1-yl)pyrimidin-5-yl)oxy)pyridin-4-yl)methyl)piperidin-4-yl)acetic acid], for which the inhibition at 1 µM in test [1] was found to be 26.2%; in the test on dengue virus (DENV) it was 8.18%; with Marburg virus (MARV), 46.4%.
As for `CN1CCN(c2ccc(Oc3cc(CN4CCC(CCO)CC4)cc(-c4cc(Cl)cc(Cl)c4)n3)nn2)CC1` [Example 360, 2-(1-((2-(3,5-dichlorophenyl)-6-((6-(4-methylpiperazin-1-yl)pyridazin-3-yl)oxy)pyridin-4-yl)methyl)piperidin-4-yl)ethanol], the values for the inhibition at 1 µM (in test [1]; with dengue virus (DENV); in the test on Marburg virus (MARV)) were 0%, 2.83% and 3.44%, respectively.
The matching figures for `CN1CCCN(c2ccc(Oc3cc(CN4CCC(CC(=O)O)CC4)cc(-c4cc(Cl)cc(Cl)c4)n3)cn2)CC1` [Example 156, 2-(1-((2-(3,5-dichlorophenyl)-6-((6-(4-methyl-1,4-diazepan-1-yl)pyridin-3-yl)oxy)pyridin-4-yl)methyl)piperidin-4-yl)acetic acid]: 38.4%, 43.9% and 13.2%.
The matching figures for `CC(=O)NCC1CCN(Cc2cc(Oc3ccc(N4CCN(C(C)CCS(C)(=O)=O)CC4)nc3)nc(-c3cc(Cl)cc(Cl)c3)c2)CC1` (stereo not drawn) [Example 16]: 4.14%, 41.7% and 28.6%.
